Laboratory results: ChEMBL document CHEMBL5728406, “Thioether triazolopyridine and triazolopyrimidine inhibitors of myeloperoxidase” (2021)

Molecular target: T1, Myeloperoxidase (Homo sapiens, UniProt P05164)
T1 sequence (P05164 whole entry): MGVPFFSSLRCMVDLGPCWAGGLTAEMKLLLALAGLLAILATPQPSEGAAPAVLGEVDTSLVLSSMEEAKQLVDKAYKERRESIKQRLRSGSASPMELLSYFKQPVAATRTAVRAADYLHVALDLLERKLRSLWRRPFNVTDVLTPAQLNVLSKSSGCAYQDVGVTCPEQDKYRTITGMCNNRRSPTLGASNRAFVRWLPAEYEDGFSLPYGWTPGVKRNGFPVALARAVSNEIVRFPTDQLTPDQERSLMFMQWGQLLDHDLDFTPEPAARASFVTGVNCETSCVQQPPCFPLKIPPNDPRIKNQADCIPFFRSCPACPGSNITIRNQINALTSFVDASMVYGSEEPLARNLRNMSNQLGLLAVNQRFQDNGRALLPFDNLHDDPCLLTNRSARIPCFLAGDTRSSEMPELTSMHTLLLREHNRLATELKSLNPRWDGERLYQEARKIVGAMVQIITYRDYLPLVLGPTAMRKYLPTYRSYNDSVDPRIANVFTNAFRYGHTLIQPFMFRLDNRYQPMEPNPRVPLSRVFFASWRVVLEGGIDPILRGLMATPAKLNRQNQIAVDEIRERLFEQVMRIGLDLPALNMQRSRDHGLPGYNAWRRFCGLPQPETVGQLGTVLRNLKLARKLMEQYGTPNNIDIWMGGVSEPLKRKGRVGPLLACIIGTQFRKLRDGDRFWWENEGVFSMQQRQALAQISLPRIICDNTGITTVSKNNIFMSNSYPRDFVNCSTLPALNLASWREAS
Assay: MPO Peroxidation (Amplex Red) Assay: MPO peroxidation activity was measured in 100 mM KPi (pH 7.4) by utilizing the non-fluorescent reagent Amplex Red (Invitrogen catalog #A12222) which can be oxidized to the highly fluorescent resorufin. Amplex Red is oxidized by the peroxidase action of MPO to resorufin. […] Enzyme and compound were preincubated for ten minutes at rt.After the ten minute preincubation, 25 μL of an Amplex Red mixture containing 200 μM Amplex Red and 10 mM H2O2 was added to the plate.

In the case of `Cc1nn(C)c(C)c1CSc1cc(N)nc2[nH]nnc12`, the IC50 is reported as 30 nM.

Molecular target: T1, Myeloperoxidase
Assay: MPO Chlorination (APF) Assay : MPO chlorination activity was measured in 100 mM KPi (pH 7.4) by utilizing the non-fluorescent reagent Aminophenyl fluorescein (APF, Invitrogen catalog #A36003). APF is cleaved by (—OCl) to yield the fluorescent compound fluorescein. […] Enzyme, inhibitor, and chloride were preincubated for ten minutes at rt.After the ten minute preincubation, 25 μL of an APF mixture containing […], 120 mM NaCl and 10 μM H2O2 was added to the plate using the internal dispensing system of a Hammatsu FDSS 6000. […] IC50 values for inhibitors were calculated by taking the slope of the linear portion of the kinetic measurement (20 seconds to ˜80-120 secs).IC50 values were calculated by determining the slope of the linear portion of the kinetic trace (180-540 secs), and using that calculated slope to determine % inhibition occurring at each concentration of inhibitor using the following equation:Y = A + B - A 1 + ( C / x ) Dwhere A=minimal Y value (activity level of inhibited sample), B=maximal Y value (activity level of uninhibited sample), C=Log IC50, D=Hill Slope, x=concentration of inhibitor.

Point of comparison: `Cc1nn(C)c(C)c1CSc1cc(N)nc2[nH]nnc12`, IC50 80 nM. Against it:
- Cn1cc(CSc2cc(N)nc3[nH]nnc23)c(C(F)(F)F)n1 — lower, < 60 nM
- N#Cc1ccc(Cl)c(CSc2cc(N)nc3[nH]nnc23)c1 — lower, < 60 nM
- N#Cc1c(F)cccc1CSc1cc(N)nc2[nH]nnc12 — lower, < 60 nM
- N#Cc1cccc(Br)c1CSc1cc(N)nc2[nH]nnc12 — lower, < 60 nM
- Cn1ncc(CSc2cc(N)nc3[nH]nnc23)c1C(F)(F)F — lower, < 60 nM
- CCc1nn(C)c(Cl)c1CSc1cc(N)nc2[nH]nnc12 — lower, < 60 nM
- Cn1nc(C(F)(F)F)c(CSc2cc(N)nc3[nH]nnc23)c1F — lower, < 60 nM
